Measurements reported in US9695155B2, “Herbicidal substituted pyrimidinyloxy benzene compounds” (E. I. DU PONT DE NEMOURS AND COMPANY, priority 2013, dated 2017).

Key:
oilseed rape = assay: Test D postemergence; type: in vivo, Brassica napus; details: Brassica napus, post-emergence, scale 0 to 100 (0 no effect, 100 complete control), read-out: Plant response rating, Oilseed Rape
Method in brief: (§1)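 Visual ratings from 0 (no effect) to 100 (complete control) relative to untreated plants were taken 7–21 days after treatment. Chemicals in a surfactant-containing solvent mixture were applied preemergence to seeds in silt loam, or postemergence to plants 2–18 cm tall (1–4 leaves) grown in a peat-based potting medium.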

Italian ryegrass = assay: Test D preemergence; type: in vivo, Lolium multiflorum; details: Lolium multiflorum, pre-emergence
Description: (§2) Seeds of plant species selected from bluegrass (annual bluegrass, Poa annua), blackgrass (Alopecurus myosuroides), canarygrass (littleseed canarygrass, Phalaris minor), chickweed (common chickweed, Stellaria media), galium (catchweed bedstraw, Galium aparine), bromegrass, downy (downy bromegrass, Bromus tectorum), field poppy (Papaver rhoeas), field violet (Viola arvensis), green foxtail (Setaria viridis), deadnettle (henbit deadnettle, Lamium amplexicaule), Italian ryegrass (Lolium multiflorum), kochia (Kochia scoparia), lambsquarters (Chenopodium album), oilseed rape (Brassica napus), pigweed (Amaranthus retroflexus), chamomile (scentless chamomile, Matricaria inodora), Russian thistle (Salsola kali), speedwell (bird's-eye speedwell, Veronica persica), spring barley (Hordeum vulgare), spring wheat (Triticum aestivum), wild buckwheat (Polygonum convolvulus), wild mustard (Sinapis arvensis), wild oat (Avena fatua), wild radish (Raphanus raphanistrum), windgrass (Apera spica-venti), winter barley (Hordeum vulgare), and winter wheat (Triticum aestivum) were planted into a silt loam soil and treated preemergence with test chemicals formulated in a non-phytotoxic solvent mixture which included a surfactant.
(§3) At the same time, these species were planted in pots containing Redi-Earth® planting medium (Scotts Company, 14111 Scottslawn Road, Marysville, Ohio 43041) comprising spaghnum peat moss, vermiculite, wetting agent and starter nutrients and treated with postemergence applications of the test chemicals formulated in the same manner. Plants ranged in height from 2 to 18 cm (1- to 4-leaf stage). Treated plants and controls were maintained in a controlled growth environment for 7 to 21 days after which time all species were compared to controls and visually evaluated. Plant response ratings, summarized in Table D, are based on a scale of 0 to 100 where 0 is no effect and 100 is complete control. A dash (-) response means no test result.

winter wheat = assay: Test D postemergence; type: in vivo, Triticum aestivum; details: Triticum aestivum, post-emergence, scale 0 to 100 (0 no effect, 100 complete control), read-out: Plant response rating, Wheat, Winter
Method in brief: as §1

spring wheat = assay: Test D postemergence; type: in vivo, Triticum aestivum; details: Triticum aestivum, post-emergence, scale 0 to 100 (0 no effect, 100 complete control), read-out: Plant response rating, Wheat, Spring
Method in brief: as §1

green foxtail = assay: Test D postemergence; type: in vivo, Setaria viridis; details: Setaria viridis, post-emergence, scale 0 to 100 (0 no effect, 100 complete control), read-out: Plant response rating, Foxtail, Green
Method in brief: as §1

deadnettle = assay: Test D postemergence; type: in vivo, Lamium amplexicaule; details: Lamium amplexicaule, post-emergence, scale 0 to 100 (0 no effect, 100 complete control), read-out: Plant response rating, Deadnettle
Description: as §2, §3

ragweed = assay: Test E postemergence; type: in vivo, Ambrosia elatior
Description: Seeds of plant species selected from corn (Zea mays), soybean (Glycine max), velvetleaf (Abutilon theophrasti), lambsquarters (Chenopodium album), wild poinsettia (Euphorbia heterophylla), palmer pigweed (Amaranthus palmeri), waterhemp (common waterhemp, Amaranthus rudis), surinam grass (Brachiaria decumbens), large (Lg) crabgrass (Digitaria sanguinalis), Brazilian crabgrass (Digitaria horizontalis), fall panicum (Panicum dichotomiflorum), giant foxtail (Setaria faberii), green foxtail (Setaria viridis), goosegrass (Eleusine indica), johnsongrass (Sorghum halepense), ragweed (common ragweed, Ambrosia elatior), barnyardgrass (Echinochloa crus-galli), sandbur (southern sandbur, Cenchrus echinatus), arrowleaf sida (Sida rhombifolia), Italian ryegrass (Lolium multiflorum), dayflower (Virginia (VA) dayflower, Commelina virginica), field bindweed (Convolvulus arvensis), morningglory (Ipomoea coccinea), nightshade (eastern black nightshade, Solanum ptycanthum), kochia (Kochia scoparia), yellow nutsedge (Cyperus esculentus), cocklebur (common cocklebur, Xanthium strumarium), smartweed (ladysthumb smartweed, and hairy beggarticks (Bidens pilosa), were planted into a silt loam soil and treated preemergence with test chemicals formulated in a non-phytotoxic solvent mixture which included a surfactant.
At the same time, plants from these crop and weed species and also horseweed (Canada horseweed, Conyza canadensis), waterhemp_RES1, (ALS & Triazine resistant common waterhemp, Amaranthus rudis), and waterhemp_RES2, (ALS & HPPD resistant common waterhemp, Amaranthus rudis) were planted in pots containing Redi-Earth® planting medium (Scotts Company, 14111 Scottslawn Road, Marysville, Ohio 43041) comprising spaghnum peat moss, vermiculite, wetting agent and starter nutrients were treated with postemergence applications of test chemicals formulated in the same manner. Plants ranged in height from 2 to 18 cm for postemergence treatments (1- to 4-leaf stage). Treated plants and controls were maintained in a greenhouse for 14 to 21 days, after which time all species were compared to controls and visually evaluated. Plant response ratings, summarized in Table E, are based on a scale of 0 to 100 where 0 is no effect and 100 is complete control. A dash (-) response means no test result.

signalgrass = assay: Test F preemergence; type: in vivo, Brachiaria platyphylla; details: 21 days, scale 0 to 100
Description: Seeds of plant species selected from bermudagrass (Cynodon dactylon), surinam grass (Brachiaria decumbens), large (Lg) crabgrass (Digitaria sanguinalis), crabgrass, naked (naked crabgrass, Digitaria nuda), foxtail, green (green foxtail, Setaria viridis), johnsongrass (Sorghum halepense), kochia (Kochia scoparia), morningglory (pitted morningglory, Ipomoea lacunosa), nutsedge, purple (purple nutsedge, Cyperus rotundus), ragweed (common ragweed, Ambrosia elatior), mustard, black (black mustard, Brassica nigra), guineagrass (Panicum maximum), dallisgrass (Paspalum dilatatum), barnyardgrass (Echinochloa crus-galli), sandbur (southern sandbur, Cenchrus echinatus), sowthistle (common sowthistle, Sonchus oleraceous), Italian ryegrass (Lolium multiflorum), signalgrass (broadleaf signalgrass, Brachiaria platyphylla), dayflower (Virginia (VA) dayflower, Commelina virginica), bluegrass (annual bluegrass, Poa annua), quackgrass (Elytrigia repens), mallow (common mallow, Malva sylvestris), buckwheat, wild (wild buckwheat, Polygonum convolvulus), leafy spurge (Euphorbia esula), chickweed (common chickweed, Stellaria media), wild poinsettia (Euphorbia heterophylla), and pigweed (Amaranthus retroflexus) were planted into a blend of loam soil and sand and treated preemergence with test chemicals formulated in a non-phytotoxic solvent mixture which included a surfactant.
Treated plants and controls were maintained in a greenhouse for 21 days, after which time all species were compared to controls and visually evaluated. Plant response ratings, summarized in Table F, are based on a scale of 0 to 100 where 0 is no effect and 100 is complete control. A dash (-) response means no test result.

[1] = Postemergence, 31 g ai/ha, scale 0 to 100
[2] = Postemergence, 62 g ai/ha, scale 0 to 100
[3] = Postemergence, 125 g ai/ha, scale 0 to 100
[4] = postemergence, 16 g ai/ha, scale 0 to 100, 0 no effect, 100 complete control

## N#Cc1cccc(Oc2ncc(Cl)cn2)c1-n1cc(Br)cn1 [Compound 52, 2-(4-bromo-1H-pyrazol-1-yl)-3-[(5-chloro-2-pyrimidinyl)oxy]benzonitrile]
Oilseed rape; 31 g ai/ha
  plant injury at 31 g/ha: 55%
Oilseed rape; 62 g ai/ha
  plant injury at 62 g/ha: 65%
Oilseed rape; 125 g ai/ha
  plant injury at 125 g/ha: 85%
Oilseed rape; 250 g ai/ha
  plant injury at 250 g/ha: 95%
Italian ryegrass; 31 g ai/ha, scale 0 (no effect) to 100 (complete control), read-out: Plant response rating, Ryegrass, Italian
  pest or weed control at 31 g/ha: 0%
Italian ryegrass; 62 g ai/ha, scale 0-100, read-out: Plant response rating, Ryegrass, Italian
  pest or weed control at 62 g/ha: 0%
Italian ryegrass; 125 g ai/ha, scale 0-100, read-out: Plant response rating, Ryegrass, Italian
  pest or weed control at 125 g/ha: 5%
Italian ryegrass; 250 g ai/ha, scale 0-100, read-out: Plant response rating, Ryegrass, Italian
  pest or weed control at 250 g/ha: 50%
Winter wheat; 31 g ai/ha
  plant injury at 31 g/ha: 10%
Winter wheat; 62 g ai/ha
  plant injury at 62 g/ha: 15%
Winter wheat; 125 g ai/ha
  plant injury at 125 g/ha: 20%
Winter wheat; 250 g ai/ha
  plant injury at 250 g/ha: 25%
Spring wheat; 31 g ai/ha
  plant injury at 31 g/ha: 5%
Spring wheat; 62 g ai/ha
  plant injury at 62 g/ha: 10%
Spring wheat; 125 g ai/ha
  plant injury at 125 g/ha: 10%
Spring wheat; 250 g ai/ha
  plant injury at 250 g/ha: 15%
Green foxtail; 31 g ai/ha
  pest or weed control at 31 g/ha: 15%
Green foxtail; 62 g ai/ha
  pest or weed control at 62 g/ha: 20%
Green foxtail; 125 g ai/ha
  pest or weed control at 125 g/ha: 40%
Green foxtail; 250 g ai/ha
  pest or weed control at 250 g/ha: 75%
deadnettle; 31 g ai/ha
  pest or weed control at 31 g/ha: 65%
deadnettle; 62 g ai/ha
  pest or weed control at 62 g/ha: 70%
deadnettle; 125 g ai/ha
  pest or weed control at 125 g/ha: 70%
deadnettle; 250 g ai/ha
  pest or weed control at 250 g/ha: 100%
ragweed; [1]
  Plant response rating, Ragweed: 50
ragweed; [2]
  Plant response rating, Ragweed: 55
ragweed; [3]
  Plant response rating, Ragweed: 60
ragweed; [4]
  Plant response rating, Ragweed: 40

## Clc1cnc(Oc2cccc(Cl)c2-n2cc(I)cn2)nc1 [Compound 181]
ragweed; [1]
  Plant response rating, Ragweed: 25
ragweed; [2]
  Plant response rating, Ragweed: 30
ragweed; [3]
  Plant response rating, Ragweed: 50
ragweed; [4]
  Plant response rating, Ragweed: 20

## N#Cc1cccc(Oc2ncc(F)cn2)c1-n1cc(C(F)(F)F)cn1 [Compound 79, 3-[(5-fluoro-2-pyrimidinyl)oxy]-2-[4-(trifluoromethyl)-1H-pyrazol-1-yl]benzonitrile]
signalgrass; 16 g ai/ha
  Plant response rating, Signalgrass: 98
signalgrass; 31 g ai/ha
  Plant response rating, Signalgrass: 100
signalgrass; 62 g ai/ha
  Plant response rating, Signalgrass: 100
signalgrass; 125 g ai/ha
  Plant response rating, Signalgrass: 100
signalgrass; 250 g ai/ha
  Plant response rating, Signalgrass: 100
ragweed; [1]
  Plant response rating, Ragweed: 40
ragweed; [2]
  Plant response rating, Ragweed: 50
ragweed; [3]
  Plant response rating, Ragweed: 60
ragweed; [4]
  Plant response rating, Ragweed: 30
